The text below walks through data of patent publication US20060040884A1, “Antisense oligonucleotides directed to genes regulated by trapoxin-induced HDAC inhibition” (priority 2001, published 2006).

One test deals with p21waf1. Nature of the test: Immunoblot detection of p21waf1 protein induction in response to trapoxin A. Conditions: H1299 cells, 48 h. It is filed as cell-based, human. The protocol:
(§1) Detection of p21^waf1 and RhoB protein induction in response to trapoxin A treatment. […] Whole lysates are prepared in triple detergent lysis buffer (50 mM Tris, pH 8, 150 mM NaCl, 0.02% NaN3, 0.1% SDS, 1% Nonidet P-40, 0.5% sodium deoxycholate, 100 μg/ml phenylmethylsulfonyl fluoride, 1 μg/ml aprotinin) and proteins are separated by SDS-polyacrylamide electrophoresis, electrophoretically transferred to nitrocellulose membranes, and incubated with anti-p21^waf1 (BD Pharmingen, San Jose, Calif.) or anti-RhoB (Santa Cruz Biotechnologies, Santa Cruz Calif.). Immunoreactive proteins are visualized using ECL chemiluminescence system (Amersham Pharmacia Biotech., Piscataway, N.J.).

Test [1] concerns H1299 cells. Description: Additional microarray analysis of RhoA, RhoB, RhoC expression in TPX-treated H1299 cells. It is filed as cell-based, human. Particulars: H1299 cells treated with 30 nm TPX. The procedure:
Microarray analysis is performed essentially as described in Welsh, J. B. Cancer Res. 61 5974-8 (2001). Poly (A)+ RNA is prepared from H1299 cells treated with TPX or DMSO for 0, 6, and 24 h. RNA is also prepared from 136 transformed cell lines. Labelled cDNA is prepared and hybridized to HU6800 or U95a oligonucleotide arrays (Affymetrix, Santa Clara, Calif.). The arrays are scanned on an Affymetrix confocal scanner and analyzed with GENECHIP 3.1 software (Affymetrix). T-test of the results is done.

For test [2], the system named is H1299 cells. Description: Northern blot analysis of transcripts in TPX-treated H1299 cells. In kind it is cell-based, human. The procedure:
Northern Blotting. […] RNA is separated by electrophoresis on denaturing agarose gels and transferred to nylon membranes. Membranes are hybridized with random hexanucleotide-primed ^32P-labeled DNA fragments that are prepared from the RhoB gene, using standard protocols.
A subset of genes on Incyte cDNA arrays that were differentially expressed in response to HDAC inhibition by TPX treatment were analyzed using Northern blot analyses to confirm that the level of these transcripts changed in response to HDAC inhibition. Total RNA that was isolated from TPX-treated H1299 cells for 0, 6 and 18 h was hybridized with probes that were prepared from sequences of 8 differentially expressed transcripts, including G9 sialidase, IPP isomerase, p21^waf1, Interferon γ-inducible IP-30 (GILT), Hsp 70, urokinase plasminogen activator receptor, and KIAA0797. Although there were differences in the absolute changes in transcript levels that were determined by Northern analysis versus the arrays, the directional trend in the differential expression in response to TPX was confirmed for all of the genes tested.
[…] RNA is separated by electrophoresis on denaturing agarose gels and transferred to nylon membranes. […]
Total RNA is isolated from H1299 cells treated for 6 h with 30 nM TPX or DMSO using Trizol reagent (Life Technologies). The RNA samples are analyzed by Northern blots using conventional methods. […]

For the next test, the system named is RhoB promoter. Description: RhoB promoter luciferase reporter assay in transfected H1299 cells treated with TPX. (In general: In a reporter assay the amount or activity of a reporter protein is the signal.)
The subject of the next test is RhoB. Description: Western/immunoblot detection of RhoB protein in TPX-treated H1299 cells. It is filed as cell-based, human. Conditions: 30 nM. The procedure: as §1
H1299 non-small lung carcinoma cells are treated with 30 nM trapoxin A or 0.1% dimethysulphoxide or untreated for 0, 8, 24 and 48 h for RhoB. Whole lysates are prepared in triple detergent lysis buffer (50 mM Tris, pH 8, 150 mM NaCl, 0.02% NaN3, 0.1% SDS, 1% Nonidet P-40, 0.5% sodium deoxycholate, 100 μg/ml phenylmethylsulfonyl fluoride, 1 μg/ml aprotinin) and proteins are separated by SDS-polyacrylamide electrophoresis, electrophoretically transferred to nitrocellulose membranes, and incubated with anti-RhoB (Santa Cruz Biotechnologies, Santa Cruz Calif.). Immunoreactive proteins are visualized using ECL chemiluminescence system (Amersham Pharmacia Biotech., Piscataway, N.J.). […]
Background: Immunoblotting shows a protein as a band on a membrane.

Square brackets hold non-standard residues; d marks the D form. Peptide text beside a SMILES is read from it. ξ: configuration not given here. Aoe(9ξ) = N[C@@H](CCCCCC(=O)C1CO1)C(=O)O; dPip = O=C(O)[C@H]1CCCCN1

As for `O=C(CCCCC[C@@H]1NC(=O)[C@H]2CCCCN2C(=O)[C@H](Cc2ccccc2)NC(=O)[C@H](Cc2ccccc2)NC1=O)C1CO1` (stereo partly shown) [TPX, Trapoxin A] (cyclo(FF[dPip][Aoe(9ξ)])), the “TPX-induced p21waf1 expression (Western blotting)” value with p21waf1 is on record as “decreased”. Also, in the test with H1299 cells [1], the “Expression of RhoA (additional microarray analysis)” value is “unchanged”, the “Expression of RhoC (additional microarray analysis)” value is reported as “unchanged” and the “RhoB upregulation (additional microarray analysis)” value is given as “approximately 8 fold”. The “RhoB mRNA level (Northern analysis)” value in the test on H1299 cells [2] (30 nM, 6 h) is given as “up-regulated”. Further, the “Directional trend in differential expression vs arrays (Northern; G9 sialidase, IPP isomerase, p21waf1, IP-30, Hsp 70, UpaR, KIAA0797)” value with H1299 cells [2] (TPX 0, 6 and 18 h) is reported as “confirmed”. In addition, the “Induction of luciferase activity driven by the RhoB promoter” value in the test on RhoB promoter (30 nM TPX 24 h, normalized to DMSO) was “about 10 fold”. The “Effect of insertion of three nucleotides (AAA) between CCAAT and TATA boxes on TPX induction” value with RhoB promoter (30 nM TPX vs 0.1% DMSO, 24 h) is recorded as “no effect”. Besides, the “Induction of RhoB promoter 5′ deletion constructs (luciferase activity)” value in the test with RhoB promoter (all constructs generated) was “induced by TPX to a similar extent”. In the test with RhoB, the “RhoB protein level (Western analysis)” value was “up-regulated”.
